# pIC50: −log10 of the molar value. Activity calls are given as the source filed them. The calls are words filed in the database; no cut-off is given here.
# What was measured:
# [1] = molecular target: T1, Acetylcholinesterase (Homo sapiens, UniProt P22303); assay: Inhibition of AChE (unknown origin) at 10 uM using acetylthiocholine iodide as substrate preincubated for 10 mins followed by substrate addition measured after 10 mins by Ellman's method
# [2] = molecular target: T1, Acetylcholinesterase; assay: Inhibition of AChE (unknown origin) using acetylthiocholine iodide as substrate preincubated for 10 mins followed by substrate addition measured after 10 mins by Ellman's method
# T1 sequence (P22303 whole entry): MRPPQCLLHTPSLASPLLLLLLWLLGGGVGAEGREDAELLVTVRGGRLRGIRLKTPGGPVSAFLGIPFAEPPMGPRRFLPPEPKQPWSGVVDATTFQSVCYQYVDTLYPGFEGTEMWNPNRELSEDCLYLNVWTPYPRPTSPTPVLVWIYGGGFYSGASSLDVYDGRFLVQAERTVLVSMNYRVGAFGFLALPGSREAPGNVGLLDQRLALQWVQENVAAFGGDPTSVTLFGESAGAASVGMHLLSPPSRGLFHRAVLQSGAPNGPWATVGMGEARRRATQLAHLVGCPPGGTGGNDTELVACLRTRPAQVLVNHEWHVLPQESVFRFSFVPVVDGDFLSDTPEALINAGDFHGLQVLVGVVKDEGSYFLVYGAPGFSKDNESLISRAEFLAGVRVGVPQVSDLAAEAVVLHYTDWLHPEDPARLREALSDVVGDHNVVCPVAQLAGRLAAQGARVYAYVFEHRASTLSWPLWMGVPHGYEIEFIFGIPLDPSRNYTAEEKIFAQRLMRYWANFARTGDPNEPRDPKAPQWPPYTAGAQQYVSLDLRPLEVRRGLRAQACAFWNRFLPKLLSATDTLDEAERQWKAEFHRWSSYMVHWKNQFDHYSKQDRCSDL
SMILES,inhibition [1],pIC50 [2]
COC(=O)C(C)(C)C1=CC[C@@H]2[C@@](C)(C(=O)C[C@]3(C)[C@@H]([C@@](C)(O)C(=O)/C=C/C(C)(C)OC(C)=O)[C@H](O)C[C@@]23C)/C1=C/C(=O)O,inactive,
CC(=O)OC(C)(C)CCC(=O)[C@](C)(O)[C@H]1[C@H](O)C[C@@]2(C)[C@@H]3CC=C4[C@@H](C[C@H](O)C(=O)C4(C)C)[C@]3(C)C(=O)C[C@]12C,inactive,
CC(=O)OC(C)(C)/C=C/C(=O)[C@](C)(O)[C@H]1[C@H](O)C[C@@]2(C)[C@@H]3CC=C(C(C)(C)C(=O)O)C4=CC(=O)O[C@](O)(C[C@]12C)[C@@]43C,,5.59
CC(=O)OC(C)(C)CCC(=O)[C@](C)(O)[C@H]1[C@H](O)C[C@@]2(C)[C@@H]3CC=C4[C@@H](C[C@H](O[C@@H]5O[C@H](CO)[C@@H](O)[C@H](O)[C@H]5O)C(=O)C4(C)C)[C@]3(C)C(=O)C[C@]12C,inactive,
CC(=O)OC[C@H]1O[C@@H](OC2=C[C@@H]3C(=CC[C@@H]4[C@@]3(C)C(=O)C[C@]3(C)[C@@H]([C@@](C)(O)C(=O)/C=C/C(C)(C)OC(C)=O)[C@H](O)C[C@@]43C)C(C)(C)C2=O)[C@H](O)[C@@H](O)[C@@H]1O,inactive,
CC(=O)OC(C)(C)/C=C/C(=O)[C@](C)(O)[C@H]1[C@H](O)C[C@@]2(C)[C@@H]3CC=C4[C@@H](C=C(O)C(=O)C4(C)C)[C@]3(C)C(=O)C[C@]12C,inactive,
CC(=O)OC(C)(C)/C=C/C(=O)[C@](C)(O)[C@H]1[C@H](O)C[C@@]2(C)[C@@H]3CC=C4[C@@H](C[C@H](O)C(=O)C4(C)C)[C@]3(C)C(=O)C[C@]12C,inactive,
CC(=O)OC(C)(C)/C=C/C(=O)[C@](C)(O)[C@H]1[C@H](O)C[C@@]2(C)[C@@H]3CC=C(C(C)(C)C(=O)O)/C(=C\C#N)[C@]3(C)C(=O)C[C@]12C,inactive,
CC(=O)OC(C)(C)/C=C/C(=O)[C@](C)(O)[C@H]1[C@H](O)C[C@@]2(C)[C@@H]3[C@@H](O)C=C4[C@@H](C=C(O[C@@H]5O[C@H](CO)[C@@H](O)[C@H](O)[C@H]5O)C(=O)C4(C)C)[C@]3(C)C(=O)C[C@]12C,inactive,
CC(=O)OC(C)(C)/C=C/C(=O)[C@](C)(O)[C@H]1[C@H](O)C[C@@]2(C)[C@@H]3CC=C4[C@@H](C[C@H](O[C@@H]5O[C@H](CO)[C@@H](O)[C@H](O)[C@H]5O)C(=O)C4(C)C)[C@]3(C)C(=O)C[C@]12C,inactive,
CC(=O)OC(C)(C)/C=C/C(=O)[C@](C)(O)[C@H]1[C@H](O)C[C@@]2(C)[C@@H]3CC=C(C(C)(C)C(=O)O)/C(=C\C(=O)O)[C@]3(C)C(=O)C[C@]12C,,5.51

# Reference: ChEMBL document CHEMBL4196184, “Colocynthenins A-D, Ring-A seco-Cucurbitane Triterpenoids from the Fruits of Citrullus colocynthis” (J Nat Prod, 2018)
